pEC50, pIC50: −log10 of the molar value. Like-named read-outs stand apart in the source and are kept apart here.
System: 280 human cancer cell lines
Assay: OncoPanel cell proliferation assay (10-day)
Type: cell-based
Conditions: Homo sapiens; for GI50: read-out: Cell Count GI50; for pIC50: read-out: Cell Count IC50; for pEC50: read-out: Cell Count EC50
[1] = HOS, Soft Tissue - Osteosarcoma
[2] = HT-1080, HT-1080, Soft Tissue - Sarcoma
[3] = HUH-6-clone5, HUH-6 Clone 5, Liver
[4] = Hs 821.T, Soft Tissue - Sarcoma
[5] = Hs 888.Sk, Soft Tissue - Osteosarcoma

CC(C)=CCC[C@H](CO)[C@@H]1CC[C@@H](C)c2c1cc(C)c(O)c2O [Compound 1, 7,8,18-trihydroxyserrulat-14-ene] showed a GI50 [1] of 0.96 µM, a pIC50 [1] of 6.02 and a pEC50 (HPAF-II, Pancreas) of 5.86. It also gave a GI50 (HPAF-II, Pancreas) of 1.37 µM, a pIC50 (HPAF-II, Pancreas) of 5.86 and a pEC50 (HT1197, HT-1197, Bladder) of 5.64. It also gave a GI50 (HT1197, HT-1197, Bladder) of 2.28 µM, a pIC50 (HT1197, HT-1197, Bladder) of 5.63 and a pEC50 (HT, Lymphoma) of 5.82. The GI50 (HT, Lymphoma) was 1.51 µM, the pIC50 (HT, Lymphoma) was 5.82 and the pEC50 (HT-3, Female GU - Cervix) was 5.41. The GI50 (HT-3, Female GU - Cervix) was 3.84 µM, the pIC50 (HT-3, Female GU - Cervix) was 5.41 and the pEC50 (HT-29, HT-29, Colon) was 5.40. It also gave a GI50 (HT-29, HT-29, Colon) of 4 µM, a pIC50 (HT-29, HT-29, Colon) of 5.40 and a pEC50 [2] of 6.02. For the same compound, the GI50 [2] was 0.96 µM, the pIC50 [2] was 6.02 and the pEC50 (HT-1376, HT1376, Bladder) was 5.84. The GI50 (HT-1376, HT1376, Bladder) was 1.43 µM, the pIC50 (HT-1376, HT1376, Bladder) was 5.84 and the pEC50 [3] was 5.82. It also gave a GI50 [3] of 1.51 µM, a pIC50 [3] of 5.82 and a pEC50 (HeLa, Female GU - Cervix) of 5.52. The GI50 (HeLa, Female GU - Cervix) was 2.98 µM, the pIC50 (HeLa, Female GU - Cervix) was 5.52 and the pEC50 (HepG2, HepG2, Liver) was 6.09. For the same compound, the GI50 (HepG2, HepG2, Liver) was 0.81 µM, the pIC50 (HepG2, HepG2, Liver) was 6.09 and the pEC50 (Hs 229.T, Lung - NSCLC) was 5.54. For the same compound, the GI50 (Hs 229.T, Lung - NSCLC) was 2.89 µM, the pIC50 (Hs 229.T, Lung - NSCLC) was 5.53 and the pEC50 (Hs 294T, Skin (Melanoma)) was 5.58. The GI50 (Hs 294T, Skin (Melanoma)) was 2.59 µM, the pIC50 (Hs 294T, Skin (Melanoma)) was 5.58 and the pEC50 (Hs 445, Hs 445, Lymphoma) was 5.89. For the same compound, the GI50 (Hs 445, Hs 445, Lymphoma) was 1.31 µM, the pIC50 (Hs 445, Hs 445, Lymphoma) was 5.88 and the pEC50 (Hs 611.T, Lymphoma) was 5.53. It also gave a GI50 (Hs 611.T, Lymphoma) of 2.91 µM, a pIC50 (Hs 611.T, Lymphoma) of 5.53 and a pEC50 (Hs 683, Hs 683, CNS - Glioma) of 5.31. It also gave a GI50 (Hs 683, Hs 683, CNS - Glioma) of 4.76 µM, a pIC50 (Hs 683, Hs 683, CNS - Glioma) of 5.31 and a pEC50 (Hs 688(A).T, Skin (Melanoma)) of 5.88. The GI50 (Hs 688(A).T, Skin (Melanoma)) was 1.27 µM, the pIC50 (Hs 688(A).T, Skin (Melanoma)) was 5.84 and the pEC50 (Hs746T, HS 746T, Stomach) was 5.25. The GI50 (Hs746T, HS 746T, Stomach) was 4.64 µM, the pIC50 (Hs746T, HS 746T, Stomach) was 5.24 and the pEC50 (Hs766T, Hs 766T, Pancreas) was 5.79. For the same compound, the GI50 (Hs766T, Hs 766T, Pancreas) was 1.54 µM, the pIC50 (Hs766T, Hs 766T, Pancreas) was 5.79 and the pEC50 [4] was 5.37. It also gave a GI50 [4] of 1.8 µM, a pIC50 [4] of 5.37 and a pEC50 [5] of 5.66. It also gave a GI50 [5] of 2.05 µM, a pIC50 [5] of 5.62 and a pEC50 (Hs 934.T, Skin (Melanoma)) of 5.60. The GI50 (Hs 934.T, Skin (Melanoma)) was 2.34 µM, the pIC50 (Hs 934.T, Skin (Melanoma)) was 5.49 and the pEC50 (Hs 936.T(C1), Skin (Melanoma)) was 5.70. The GI50 (Hs 936.T(C1), Skin (Melanoma)) was 1.97 µM, the pIC50 (Hs 936.T(C1), Skin (Melanoma)) was 5.70 and the pEC50 (Hs-578T, Hs 578T, Breast) was 5.32. The GI50 (Hs-578T, Hs 578T, Breast) was 4.68 µM, the pIC50 (Hs-578T, Hs 578T, Breast) was 5.32 and the pEC50 (HuCCT-1, HuCCT1, Liver) was 5.61. For the same compound, the GI50 (HuCCT-1, HuCCT1, Liver) was 2.48 µM, the pIC50 (HuCCT-1, HuCCT1, Liver) was 5.61 and the pEC50 (HuP-T4, HuP-T4, Pancreas) was 5.34. It also gave a GI50 (HuP-T4, HuP-T4, Pancreas) of 4.53 µM, a pIC50 (HuP-T4, HuP-T4, Pancreas) of 5.34 and a pEC50 (J82, Bladder) of 5.97. The GI50 (J82, Bladder) was 1.05 µM, the pIC50 (J82, Bladder) was 5.97 and the pEC50 (JAR, Placenta) was 4.91. The GI50 (JAR, Placenta) was 12.2 µM, the pIC50 (JAR, Placenta) was 4.91 and the pEC50 (JEG-3, JEG-3, Placenta) was 5.36. For the same compound, the GI50 (JEG-3, JEG-3, Placenta) was 4.32 µM, the pIC50 (JEG-3, JEG-3, Placenta) was 5.36 and the pEC50 (JIYOYE, Lymphoma) was 5.23. It also gave a GI50 (JIYOYE, Lymphoma) of 5.87 µM, a pIC50 (JIYOYE, Lymphoma) of 5.23 and a pEC50 (JeKo-1, JeKo-1, Lymphoma) of 5.28. For the same compound, the GI50 (JeKo-1, JeKo-1, Lymphoma) was 5.21 µM, the pIC50 (JeKo-1, JeKo-1, Lymphoma) was 5.28 and the pEC50 (Jurkat, Leukemia) was 5.65. For the same compound, the GI50 (Jurkat, Leukemia) was 2.24 µM, the pIC50 (Jurkat, Leukemia) was 5.65 and the pEC50 (K562, K562, Leukemia) was 5.34. The GI50 (K562, K562, Leukemia) was 4.58 µM, the pIC50 (K562, K562, Leukemia) was 5.34 and the pEC50 (KATO III, Stomach) was 5.48. The GI50 (KATO III, Stomach) was 3.27 µM, the pIC50 (KATO III, Stomach) was 5.48 and the pEC50 (KHOS-240S, Soft Tissue - Osteosarcoma) was 6.02.

— patent US11331299B2, “Medicinal use of serrulatane diterpenes” (The University of Sydney, priority 2016, dated 2022)
